This note sets out measurements from patent publication US6380238B1, “Indoline derivatives as 5-HT2B and or 5-HTC receptor ligands” (Vernalis Research Limited, priority 1998, dated 2002).

Counter-ions that a name gives are not always drawn.

The target of data set [1] is T1, 5-HT2A receptor (Homo sapiens, UniProt P28223). Nature of the data set: Binding to 5-HT2A receptor, [125I]-DOI radioligand, CHO cell line. Details: expressed in transfected cells; host or cells: CHO cell line. The procedure: (§1) 1. Binding to Serotonin Receptors
(§2) The binding of compounds of formula (I) to serotonin receptors was determined in vitro by standard methods. The preparations were investigated in accordance with the assays given hereinafter.
Method (c): For the binding to the 5-HT2A receptor the 5-HT2A receptors were radiolabeled with [^125I]-DOI. The affinity of the compounds for 5-HT2A receptors in a CHO cell line was determined according to the procedure of D. J. McKenna and S. J. Peroutka, J. Neurosci., 1989, 9, 3482-90.

Data set [2] addresses T1, 5-HT2A receptor. In words: Functional activity, FLIPR calcium assay in CHO cells expressing human 5-HT2A. In kind it is cell-based. The note with it: for Emax: CHO, read-out: h5-HT2A Relative Efficacy (%). Details: expressed in transfected cells; host or cells: CHO cells. As for the experimental part:
(§3) The functional activity of compounds of formula (I) was assayed using a Fluorimetric Imaging Plate reader (FLIPR). CHO cells expressing the human 5-HT2C or human 5-HT2A receptors were counted and plated into standard 96 well microtitre plates on the day before testing to give a confluent monolayer. The cells were then dye loaded with the calcium sensitive dye, Fluo-3-AM. Unincorporated dye was removed using an automated cell washer to leave a total volume of 100 μL/well of assay buffer (Hanks balanced salt solution containing 20 mM Hepes and 2.5 mM probenecid). The drug (dissolved in 50 μL of the assay buffer) was added at a rate of 70 μL/sec to each well of the FLIPR 96 well plate during fluorescence measurements. The measurements were taken at 1 sec intervals and the maximum fluorescent signal was measured (approx 10-15 secs after drug addition) and compared with the response produced by 10 μM 5-HT (defined as 100%) to which it was expressed as a percentage response (relative efficacy). Dose response curves were constructed using Graphpad Prism (Graph Software Inc.).

Data set [3] has as its target T2, 5-HT2C receptor (Homo sapiens, UniProt P28335).
T2 sequence (P28335 33-458): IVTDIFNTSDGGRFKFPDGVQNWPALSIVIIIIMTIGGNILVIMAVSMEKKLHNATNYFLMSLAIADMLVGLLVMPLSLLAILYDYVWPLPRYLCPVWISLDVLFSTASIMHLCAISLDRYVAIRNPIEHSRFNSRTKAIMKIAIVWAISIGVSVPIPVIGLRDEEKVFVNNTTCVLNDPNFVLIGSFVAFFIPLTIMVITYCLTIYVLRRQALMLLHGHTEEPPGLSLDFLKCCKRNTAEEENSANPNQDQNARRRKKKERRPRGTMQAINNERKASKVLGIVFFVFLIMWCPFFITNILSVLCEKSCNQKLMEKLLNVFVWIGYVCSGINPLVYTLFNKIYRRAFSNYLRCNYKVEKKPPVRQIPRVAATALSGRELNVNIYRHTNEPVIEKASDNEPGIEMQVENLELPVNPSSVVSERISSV
Nature of the data set: Functional activity, FLIPR calcium assay in CHO cells expressing human 5-HT2C. Type of data set: cell-based. Set-up: expressed in transfected cells; host or cells: CHO cells. Conditions: for Emax: CHO, read-out: h5-HT2C Relative Efficacy (%). The procedure: as §3

Data set [4] concerns the target T2, 5-HT2C receptor. In words: Binding to 5-HT2C receptor, [3H]-5-HT radioligand, CHO cell line. Details: expressed in transfected cells; host or cells: CHO cell line. The procedure:
as §1, §2
Method (a): For the binding to the 5-HT2C receptor the 5-HT2C receptors were radiolabeled with [^3H]-5-HT. The affinity of the compounds for 5-HT2C receptors in a CHO cell line was determined according to the procedure of D. Hoyer, G. Engel and H. O. Kalkman, European J. Pharmacol., 1985, 118, 13-23.

In a further data set the target is T3, human 5-HT2B receptors (Homo sapiens, UniProt P41595).
T3 construct: expressed in transfected cells; host or cells: CHO cell line
Nature of the data set: Binding to 5-HT2B receptor, [3H]-5-HT radioligand, CHO cell line. As for the experimental part: as §1, §2
Method (b): For the binding to the 5-HT2B receptor the 5-HT2B receptors were radiolabeled with [^3H]-5-HT. The affinity of the compounds for human 5-HT2B receptors in a CHO cell line was determined according to the procedure of K. Schmnuck, C. Ullmer, P. Engels and H. Lubbert, FEBS Lett., 1994, 342, 85-90.

T1 sequence (P28223 whole entry): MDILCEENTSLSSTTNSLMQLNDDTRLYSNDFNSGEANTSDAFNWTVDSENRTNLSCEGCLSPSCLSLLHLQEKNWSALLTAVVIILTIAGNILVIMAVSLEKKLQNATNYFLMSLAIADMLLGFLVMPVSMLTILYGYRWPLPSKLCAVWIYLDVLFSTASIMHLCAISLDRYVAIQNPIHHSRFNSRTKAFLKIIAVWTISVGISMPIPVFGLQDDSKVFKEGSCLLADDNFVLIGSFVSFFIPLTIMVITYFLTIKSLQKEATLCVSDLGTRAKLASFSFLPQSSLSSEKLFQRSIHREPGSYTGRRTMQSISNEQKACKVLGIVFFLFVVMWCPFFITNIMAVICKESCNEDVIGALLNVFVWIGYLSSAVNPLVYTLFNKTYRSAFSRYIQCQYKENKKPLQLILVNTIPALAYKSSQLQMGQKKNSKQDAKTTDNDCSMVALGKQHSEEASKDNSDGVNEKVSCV
T3 sequence (P41595 whole entry): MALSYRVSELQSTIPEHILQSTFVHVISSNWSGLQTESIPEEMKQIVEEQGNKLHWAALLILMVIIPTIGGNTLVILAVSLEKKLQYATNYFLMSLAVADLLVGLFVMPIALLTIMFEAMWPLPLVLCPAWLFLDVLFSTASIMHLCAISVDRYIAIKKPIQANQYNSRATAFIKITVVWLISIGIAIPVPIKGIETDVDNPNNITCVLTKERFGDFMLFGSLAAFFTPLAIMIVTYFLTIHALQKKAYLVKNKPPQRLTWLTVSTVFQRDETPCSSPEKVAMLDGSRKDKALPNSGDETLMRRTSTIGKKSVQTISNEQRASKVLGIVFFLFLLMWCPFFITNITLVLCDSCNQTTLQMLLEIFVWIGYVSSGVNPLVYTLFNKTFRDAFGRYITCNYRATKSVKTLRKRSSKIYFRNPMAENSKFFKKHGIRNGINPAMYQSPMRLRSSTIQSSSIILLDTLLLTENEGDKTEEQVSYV

For orientation: melting point means the temperature, or range, at which the solid turns liquid. For the compound `Cc1cc2c(cc1Cl)N(C[C@H](C)N)CC2` (as salt: fumarate) [Example 14], the melting point lay in the range of 172 to 174 °C.

As for `C[C@H](N)CN1CCc2cc(F)cc(Cl)c21` (as salt: fumarate) [Example 17], the melting point was in the range of 195 to 196 °C.

The compound `C[C@@H](N)CN1CCc2cccc(Br)c21` (as salt: fumarate) [Example 19] registered a melting point of 197 °C.

For the compound `C[C@H](N)CN1CCc2cccc(Br)c21` (as salt: fumarate) [Example 20], the melting point was 202 to 204 °C.

Take `C[C@H](N)CN1CCc2cc(F)c(F)cc21` (as salt: fumarate) [Example 22]: the melting point is 165 °C (dec.).

`C[C@H](N)CN1CCc2ccc(Cl)c(Cl)c21` (as salt: fumarate) [Example 23] returned a melting point of 176 to 178 °C.

`C[C@H](N)CN1CCc2ccc(C(F)(F)F)cc21` (as salt: fumarate) [Example 24] came in with a melting point of 197 to 199 °C.

Compound `C[C@H](N)CN1CCc2cc(F)c(Br)cc21` (as salt: fumarate) [Example 25] returned a melting point of 195 to 196 °C.

`C[C@@H](N)CN1CCc2ccc(C(F)(F)F)cc21` (as salt: fumarate) [Example 26] came in with a melting point of 196 to 197 °C.

Turning to `C[C@H](N)CN1CCc2cc(Cl)ccc21` (as salt: fumarate) [Example 28], the melting point was 207 to 210 °C.

`C[C@H](N)CN1CCc2cc(F)ccc21` (as salt: fumarate) [Example 29] gave a melting point of 175 to 176 °C.

The compound `CSc1cc2c(cc1F)CCN2CC(C)N` (stereo not drawn) (as salt: fumarate) [Example 30] displayed a melting point of 96 to 100 °C.

On to `CCSc1cc2c(cc1F)CCN2C[C@H](C)N` (as salt: fumarate) [Example 31], for which the melting point lay in the range of 164 to 168 °C.

`Cc1cccc2c1CCN2C[C@H](C)N` (as salt: fumarate) [Example 32] yielded a melting point of 161 to 162 °C.

For the compound `C[C@H](N)CN1CCc2c(F)cccc21` (as salt: fumarate) [Example 35], the melting point lay within 167 to 168 °C.

`CCc1cccc2c1N(C[C@H](C)N)CC2` (as salt: fumarate) [Example 37] came in with a melting point of 182 to 183 °C.

The compound `C[C@H](N)CN1CCc2c(Cl)cccc21` (as salt: fumarate) [Example 38] yielded a melting point of 190 to 192 °C.

For the compound `CCCSc1ccc2c(c1)N(C[C@H](C)N)CC2` (as salt: fumarate) [Example 41], the melting point was in the range of 147 to 148 °C.

`CC(C)Sc1ccc2c(c1)N(C[C@H](C)N)CC2` (as salt: fumarate) [Example 42] showed a melting point of 164 to 165 °C.

On to `C[C@H](N)CN1CCc2ccc(-c3cccnc3)cc21` (as salt: fumarate) [Example 47], for which the melting point is 155 °C (dec.).

For the compound `C[C@H](N)CN1CCc2ccc(N3CCOCC3)cc21` (as salt: fumarate) [Example 49, (S)-1-[6-(4-Morpholinyl)indolin-1-yl]-2-propylamine Fumarate], the melting point is 188 to 191 °C (dec.).

As for `NCCN1CCc2ccc(Br)cc21` (as salt: fumarate) [Example 50, 2-(6-Bromoindolin-1-yl)-1-ethylamine Fumarate], the melting point fell in the range of 203 to 206 °C.

Consider `NCCN1CCc2ccc(Cl)cc21` (as salt: fumarate) [Example 51, 2-(6-Chloroindolin-1-yl)-1-ethylamine Fumarate], for which the melting point was 195 to 196 °C.

In turn, `C[C@H](N)CN1CCc2cc(F)c(C(F)(F)F)cc21` (as salt: fumarate) [Example 60, (S)-1-(5-Fluoro-6-trifluoromethylindolin-1-yl)-2-propylamine Fumarate] registered a melting point of 190 to 192 °C.

Consider `C[C@H](N)CN1CCc2cc(F)c(I)cc21` (as salt: fumarate) [Example 61, (S)-1-(5-Fluoro-6-iodoindolin-1-yl)-2-propylamine Fumarate], for which the melting point was in the range of 185 to 187 °C.

Compound `CC(N)CN1CCc2ccc(Cl)cc21` (racemic) (as salt: hydrochloride) [Example 1, (RS)-1-(6-Chloroindolin-1-yl)-2-propylamine Hydrochloride] showed a melting point of 262 °C.

`COc1ccc2c(c1)N(CC(C)N)CC2` (racemic) (as salt: hydrochloride) [Example 2, (RS)-1-(6-Methoxyindolin-1-yl)-2-propylamine Hydrochloride] registered a melting point of 142 to 143 °C.

A word on the Ki: it is the dissociation constant of the complex between target and ligand, obtained from inhibition or displacement. A low value points to higher affinity. One may read the EC50 as the concentration that produces a half-maximal response. With `C[C@H](N)CN1CCc2ccc(Cl)cc21` [Example 10, (S)-1-(6-Chloroindolin-1-yl)-2-propylamine Fumarate], the Ki at 5-HT2A receptor [1] worked out at 0.252 µM; at 5-HT2C receptor [4], 0.055 µM; on human 5-HT2B receptors it was 0.138 µM. For the same compound, the EC50 on 5-HT2A receptor [2] worked out at 2.21 µM; on 5-HT2C receptor [3], 0.125 µM. Besides, the Emax on 5-HT2A receptor [2] came to 49%; on 5-HT2C receptor [3], 62%.

For the compound `C[C@H](N)CN1CCc2ccc(Br)cc21` [Example 12], the Ki at 5-HT2A receptor [1] was found to be 1.09 µM; at 5-HT2C receptor [4] it was 0.077 µM; at human 5-HT2B receptors, 0.042 µM. Further, the values for the EC50 on 5-HT2A receptor [2] and on 5-HT2C receptor [3] were 2.41 µM and 0.23 µM, respectively. The Emax at 5-HT2A receptor [2] amounted to 49%; on 5-HT2C receptor [3], 59%.

In the case of `COc1ccc2c(c1)N(C[C@H](C)N)CC2` [Example 13], the Ki came to 0.461 µM at 5-HT2A receptor [1], 0.122 µM at 5-HT2C receptor [4] and 0.175 µM on human 5-HT2B receptors. Further, the EC50 was 0.386 µM at 5-HT2A receptor [2] and 0.075 µM on 5-HT2C receptor [3]. Further, the Emax at 5-HT2A receptor [2] is 72%; on 5-HT2C receptor [3], 74%.

For `C[C@H](N)CN1CCc2cc(F)c(F)cc21` [Example 22], the Ki came out at 0.325 µM on 5-HT2A receptor [1], 0.26 µM on 5-HT2C receptor [4] and 0.092 µM at human 5-HT2B receptors. The EC50 on 5-HT2A receptor [2] came out at 2.57 µM; at 5-HT2C receptor [3], 0.083 µM. Besides, the Emax at 5-HT2A receptor [2] is 57%; at 5-HT2C receptor [3], 87%.

Turning to `C[C@H](N)CN1CCc2ccc(C(F)(F)F)cc21` [Example 24], the results for the Ki on 5-HT2A receptor [1], on 5-HT2C receptor [4] and on human 5-HT2B receptors were 1.87 µM, 0.235 µM and 0.148 µM, respectively. Further, the half-maximal effective concentration (EC50) at 5-HT2A receptor [2] turned out to be 3.65 µM; on 5-HT2C receptor [3] it was 0.131 µM. The values for the Emax on 5-HT2A receptor [2] and at 5-HT2C receptor [3] were 33% and 72%, respectively.

With `C[C@H](N)CN1CCc2cc(F)c(Br)cc21` [Example 25], the Ki at 5-HT2A receptor [1] worked out at 0.156 µM; on 5-HT2C receptor [4] it was 0.063 µM; on human 5-HT2B receptors it was 0.022 µM. The EC50 was determined as 1.24 µM at 5-HT2A receptor [2] and 0.021 µM on 5-HT2C receptor [3]. Moreover, the Emax at 5-HT2A receptor [2] came to 57%; at 5-HT2C receptor [3], 81%.

As for `C[C@@H](N)CN1CCc2ccc(C(F)(F)F)cc21` [Example 26], the results for the Ki at 5-HT2A receptor [1], at 5-HT2C receptor [4] and on human 5-HT2B receptors were 1.26 µM, 1.16 µM and 0.761 µM, respectively.
